GI50 and TGI data for nine compounds are collected here from PubChem BioAssay (NCI).

Test systems include 786-0 renal; HOP-92 NSCLC; HS 578T breast; KM12 colon; NCI-H522 lung; SNB-19 CNS; SR leukemia; T-47D breast; TK-10 renal; UACC-257 melanoma.
Experiment in all cases: growth of human tumour cells (NCI), 48 h

Where “and” joins values, the source holds several entries; their conditions need not be identical. Equal entries are not always repeated.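 How tested: cells in 96-well plates exposed to compound for 48 hours at five concentrations. At the GI50, growth is halved. TGI denotes the concentration required for complete inhibition of growth.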 Bounds are passed on as bounds.

Consider `C/C=C(\CCC1NCCc2c1[nH]c1ccccc21)[Si](C)(C)C` (configuration not stated), for which the GI50 was 5.26 µM and 1.81 µM in the experiment on 786-0 renal; 5.2 µM and 2.56 µM in the experiment with HOP-92 NSCLC; 6.18 µM and 1.9 µM in the experiment with KM12 colon; 15.4 µM and 7.22 µM with SNB-19 CNS; 8.12 µM and 2.7 µM in the experiment with SR leukemia; 14.3 µM and 5.62 µM with TK-10 renal. The GI50 with UACC-257 melanoma was 5.75 µM and 1.7 µM. Further, the TGI in the experiment on 786-0 renal was 9.79 µM and 3.34 µM; in the experiment with HOP-92 NSCLC, 12.3 µM and 8.5 µM; in the experiment on HS 578T breast, 6.28 µM; in the experiment on KM12 colon, 11.3 µM and 3.64 µM; with NCI-H522 lung it was 27.9 µM and 4.96 µM; in the experiment with SNB-19 CNS it was 30 µM and 22 µM. The TGI in the experiment with SR leukemia is 18.4 µM and 8.42 µM; in the experiment with T-47D breast, 4.89 µM; in the experiment on TK-10 renal it was 27.5 µM and 17 µM; in the experiment with UACC-257 melanoma, 10.7 µM and 3.71 µM.
For the compound `CNc1cccnc1/C=N/NC(N)=S`, the TGI in the experiment on 786-0 renal, in the experiment on HOP-92 NSCLC, with HS 578T breast, in the experiment with KM12 colon, in the experiment with NCI-H522 lung and in the experiment on SNB-19 CNS was more than 10 µM each time. The TGI in the experiment with SR leukemia, in the experiment on T-47D breast, with TK-10 renal and with UACC-257 melanoma was more than 10 µM in each case.
As to `Nc1nc(Cl)c(N=Nc2ccc(Cl)cc2)c(NCC2(CO)CC(OCc3ccccc3)C2)n1` (configuration not stated), the GI50 in the experiment on 786-0 renal is 5.31 µM and 11.1 µM and 2.12 µM; with HOP-92 NSCLC it was 1.83 µM and 6.13 µM and 2.33 µM; in the experiment on HS 578T breast, 7.33 µM and 29.1 µM and 8.36 µM; in the experiment on KM12 colon, 20 µM and 41.3 µM and 7.74 µM; in the experiment on NCI-H522 lung it was 2.09 µM; with SNB-19 CNS, 26.7 µM and > 100 µM and 18.3 µM. Further, the GI50 in the experiment with SR leukemia is 2.95 µM and 6.33 µM and 3.1 µM; with T-47D breast, 8.73 µM; in the experiment on UACC-257 melanoma, 32.5 µM and > 95.4 µM and 15.6 µM. Also, the TGI in the experiment on HS 578T breast is 36.2 µM and > 100 µM and > 53.7 µM; with KM12 colon, > 100 µM and 28 µM; with NCI-H522 lung, 4.26 µM; in the experiment with SNB-19 CNS it was > 100 µM and 47.6 µM; in the experiment with T-47D breast it was 73.1 µM and > 100 µM and > 77.2 µM; in the experiment on TK-10 renal, 46.9 µM and > 100 µM and 24.3 µM. For the same compound, in the experiment on UACC-257 melanoma, the TGI was > 100 µM and 46 µM.
Turning to `O=C1/C(=C/c2ccc([N+](=O)[O-])o2)Oc2ccccc21`, the GI50 with 786-0 renal was 2.06 µM; in the experiment on HOP-92 NSCLC, 0.912 µM; in the experiment with HS 578T breast, 2.88 µM; with KM12 colon, 1.77 µM; in the experiment on NCI-H522 lung, 0.384 µM; in the experiment on SNB-19 CNS, 5.06 µM. In addition, the GI50 is 0.219 µM with SR leukemia, 1.24 µM with T-47D breast, 1.59 µM in the experiment with TK-10 renal and 1.68 µM in the experiment with UACC-257 melanoma. Further, the TGI stood at 4.12 µM with 786-0 renal; 2.62 µM with HOP-92 NSCLC; 21.4 µM with HS 578T breast; 3.48 µM with KM12 colon; 1.45 µM in the experiment on NCI-H522 lung; 18.6 µM in the experiment on SNB-19 CNS. Also, the TGI with SR leukemia is 1.13 µM; in the experiment with T-47D breast, 4.34 µM; in the experiment with TK-10 renal, 3.02 µM; in the experiment with UACC-257 melanoma, 3.5 µM.
Take `NC(N)=N/N=C(/c1ccccc1)c1ccc(Cl)cc1`: the GI50 in the experiment on 786-0 renal is 16 µM; in the experiment on HOP-92 NSCLC, 4.09 µM; in the experiment on HS 578T breast it was 8.57 µM; in the experiment with KM12 colon, 5.53 µM; in the experiment with NCI-H522 lung, 12.5 µM; in the experiment on SNB-19 CNS, 87.2 µM. Moreover, the GI50 in the experiment on SR leukemia was 3.94 µM; in the experiment on T-47D breast it was more than 100 µM; in the experiment on TK-10 renal it was 32 µM; in the experiment with UACC-257 melanoma, more than 100 µM. In addition, the TGI was more than 100 µM with 786-0 renal; 90.5 µM with HOP-92 NSCLC; 51.7 µM with HS 578T breast; more than 100 µM in the experiment with KM12 colon; 71.1 µM with NCI-H522 lung; more than 100 µM in the experiment with SNB-19 CNS. Also, the TGI with SR leukemia, with T-47D breast, in the experiment with TK-10 renal and with UACC-257 melanoma was more than 100 µM in each case.
For the compound `O=C1Nc2ccccc2/C1=C/c1cn(C(=O)c2c(Cl)cccc2Cl)c2ccccc12`, the GI50 in the experiment on 786-0 renal is 3.28 µM; in the experiment with HOP-92 NSCLC, 1.54 µM; in the experiment with HS 578T breast, 2.17 µM; with KM12 colon, 1.76 µM; in the experiment on NCI-H522 lung, 4.22 µM; in the experiment with SNB-19 CNS it was 7.32 µM. In addition, the GI50 was 2.25 µM in the experiment on SR leukemia, 4.13 µM in the experiment with T-47D breast, 10.4 µM in the experiment on TK-10 renal and 5 µM in the experiment on UACC-257 melanoma. For the same compound, the TGI in the experiment with 786-0 renal is 12.7 µM; in the experiment with HOP-92 NSCLC, 6.33 µM; in the experiment on HS 578T breast, 8.98 µM; in the experiment with KM12 colon, 3.95 µM; in the experiment on NCI-H522 lung, 17.5 µM; in the experiment on SNB-19 CNS, more than 100 µM. Also, the TGI in the experiment on SR leukemia was determined as 8.13 µM; with T-47D breast it was 93 µM; in the experiment with TK-10 renal, 56 µM; in the experiment with UACC-257 melanoma it was 24.8 µM.
In the case of `O=c1[nH]ccc2nc(-c3ccc(CN4CCC(c5nc(-c6ccccn6)n[nH]5)CC4)cc3)c(-c3ccccc3)cc12`, the GI50 in the experiment on 786-0 renal was 0.737 µM; in the experiment with HOP-92 NSCLC, 0.121 µM; with HS 578T breast, 0.592 µM; in the experiment with KM12 colon it was 14.7 µM; in the experiment with NCI-H522 lung, 22.2 µM; with SNB-19 CNS it was 17.1 µM. The figures for the GI50 with SR leukemia, with TK-10 renal and in the experiment on UACC-257 melanoma were 2.34 µM, 3.37 µM and 14.8 µM, respectively. In addition, the TGI with 786-0 renal is 18.1 µM; in the experiment on HOP-92 NSCLC, more than 21.3 µM; with HS 578T breast, 16.5 µM; in the experiment on KM12 colon, more than 100 µM; with NCI-H522 lung, more than 64.2 µM; in the experiment with SNB-19 CNS it was more than 100 µM. Besides, the TGI is 66 µM in the experiment on SR leukemia, 0.0729 µM with T-47D breast, 30.4 µM with TK-10 renal and 51.3 µM with UACC-257 melanoma.
On to `CC(=O)Nc1ccc2c(c1)C(=O)c1cccc(F)c1-2`, for which the TGI is more than 100 µM in the experiment on 786-0 renal; 97.7 µM with HOP-92 NSCLC; more than 100 µM in the experiment on HS 578T breast; more than 35 µM in the experiment on KM12 colon; more than 100 µM with NCI-H522 lung; more than 100 µM in the experiment on SNB-19 CNS. Moreover, the TGI in the experiment with SR leukemia is more than 71.4 µM; in the experiment on T-47D breast, more than 100 µM; in the experiment on TK-10 renal, more than 100 µM; in the experiment on UACC-257 melanoma it was more than 100 µM.
Take `O=C1/C(=C/c2ccc(Cl)cc2)CN(Cc2cn(CCNc3ccnc4cc(Cl)ccc34)nn2)C/C1=C\c1ccc(Cl)cc1`: the GI50 was 0.247 µM in the experiment on 786-0 renal; 0.496 µM in the experiment on HOP-92 NSCLC; 0.724 µM in the experiment on HS 578T breast; 0.22 µM in the experiment on KM12 colon; 0.52 µM in the experiment with NCI-H522 lung; 0.319 µM in the experiment with SNB-19 CNS. Moreover, the GI50 is 0.245 µM in the experiment with SR leukemia, 0.946 µM with T-47D breast, 0.483 µM in the experiment on TK-10 renal and 1.59 µM in the experiment with UACC-257 melanoma. Also, the TGI in the experiment with 786-0 renal was 0.616 µM; in the experiment with HOP-92 NSCLC, 1.83 µM; in the experiment with HS 578T breast it was 13.5 µM; with KM12 colon, 0.496 µM; in the experiment with NCI-H522 lung it was 1.19 µM; in the experiment on SNB-19 CNS it was 1.27 µM. Further, the TGI came to 0.815 µM in the experiment on SR leukemia, 3.62 µM in the experiment with T-47D breast, 1.6 µM with TK-10 renal and 3.02 µM with UACC-257 melanoma.
